From US20260042764A1, “COMPOSITIONS AND METHODS FOR INHIBITION OF KRAS” (TheRas, Inc., priority 2022, published 2026)

Biological target: T1, Avi-KRAS G12D (1-169) GppNHp/RAF1 RBD-3xFLAG (52-151) (Homo sapiens, UniProt P01116, G12D)
T1 construct: Avi-KRAS G12D (1-169)
Assay: Raf1-KRAS G12D-GppNHP disruption HTRF assay (Biological Example 1)
Format: binding
Details: KRAS G12D-GppNHp/RAF1 RBD HTRF
Outline: (§1)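 Compounds were tested for disruption of KRAS–RAF1 RBD binding by HTRF in 50 mM Tris pH 7.5, 100 mM NaCl, 5 mM MgCl2, 0.1% BSA, 0.01% Tween, 10% DMSO. Protein mix was incubated 1 h at room temperature with shaking, then detection reagents added for another 1 h. Activity expressed as percent of DMSO control.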

T1 sequence (P01116 1-169 isoform P01116-2 G12D): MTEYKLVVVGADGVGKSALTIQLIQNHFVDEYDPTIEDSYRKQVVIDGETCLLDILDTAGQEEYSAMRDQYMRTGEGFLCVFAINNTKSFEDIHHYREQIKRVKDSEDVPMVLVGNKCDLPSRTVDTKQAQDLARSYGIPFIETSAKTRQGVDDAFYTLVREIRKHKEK

Row | Compound | IC50
1 | CC(=O)N1CCC2[C@H]1CCCN2c1nc(OC[C@@]23CCCN2C[C@H](F)C3)nc2c(F)c(-c3ccc(F)c4sc(N)c(C#N)c34)c(C(F)(F)F)cc12 (stereo partly drawn) [Compound 304] | 1 to 10 µM
2 | N#Cc1c(N)sc2c(F)ccc(-c3c(C(F)(F)F)cc4c(N5CCCCCC5)nc(OC[C@@]56CCCN5C[C@H](F)C6)nc4c3F)c12 [Compound 305] | 0.1 to 1 µM
3 | N#Cc1c(N)sc2c(F)ccc(-c3c(C(F)(F)F)cc4c(N5CC6CC(O)C(C6)C5)nc(OC[C@@]56CCCN5C[C@H](F)C6)nc4c3F)c12 (stereo partly drawn) [Compound 306] | 1 to 10 µM
4 | CC(=O)N1CCC2[C@H]1CCN2c1nc(OC[C@@]23CCCN2C[C@H](F)C3)nc2c(F)c(-c3ccc(F)c4sc(N)c(C#N)c34)c(C(F)(F)F)cc12 (stereo partly drawn) [Compound 307] | 1 to 10 µM
5 | N#Cc1c(N)sc2c(F)ccc(-c3c(C(F)(F)F)cc4c(N5CC6C(=O)NC(=O)C6C5)nc(OC[C@@]56CCCN5C[C@H](F)C6)nc4c3F)c12 (stereo partly drawn) [Compound 308] | 0.1 to 1 µM
6 | CN(c1nc(OC[C@@]23CCCN2C[C@H](F)C3)nc2c(F)c(-c3ccc(F)c4sc(N)c(C#N)c34)c(C(F)(F)F)cc12)[C@H]1CC[C@@H](O)C1 [Compound 309] | 0.1 to 1 µM
7 | N#Cc1c(N)sc2c(F)ccc(-c3c(C(F)(F)F)cc4c(N5CCC[C@H](CO)C5)nc(OC[C@@]56CCCN5C[C@H](F)C6)nc4c3F)c12 [Compound 310] | 0.1 to 1 µM

Biological target: T2, Avi-KRAS G12R (1-169) GppNHp/RAF1 RBD-3xFLAG (52-151) (Homo sapiens, UniProt P01116, G12R)
T2 construct: Avi-KRAS G12R (1-169)
Assay: Raf1-KRAS G12R-GppNHP disruption HTRF assay (Biological Example 1)
Format: binding
Details: KRAS G12R-GppNHp/RAF1 RBD HTRF
Outline: as §1

T2 sequence (P01116 1-169 isoform P01116-2 G12R): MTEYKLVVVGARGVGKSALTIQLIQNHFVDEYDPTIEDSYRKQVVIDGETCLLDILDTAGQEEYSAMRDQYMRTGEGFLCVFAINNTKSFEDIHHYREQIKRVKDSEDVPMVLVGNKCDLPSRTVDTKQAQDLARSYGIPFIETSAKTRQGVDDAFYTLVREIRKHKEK

Row | Compound | IC50
8 | CC(=O)N1CCC2[C@H]1CCCN2c1nc(OC[C@@]23CCCN2C[C@H](F)C3)nc2c(F)c(-c3ccc(F)c4sc(N)c(C#N)c34)c(C(F)(F)F)cc12 (stereo partly drawn) [Compound 304] | 1 to 10 µM
9 | N#Cc1c(N)sc2c(F)ccc(-c3c(C(F)(F)F)cc4c(N5CCCCCC5)nc(OC[C@@]56CCCN5C[C@H](F)C6)nc4c3F)c12 [Compound 305] | 0.1 to 1 µM
10 | N#Cc1c(N)sc2c(F)ccc(-c3c(C(F)(F)F)cc4c(N5CC6CC(O)C(C6)C5)nc(OC[C@@]56CCCN5C[C@H](F)C6)nc4c3F)c12 (stereo partly drawn) [Compound 306] | 1 to 10 µM
11 | CC(=O)N1CCC2[C@H]1CCN2c1nc(OC[C@@]23CCCN2C[C@H](F)C3)nc2c(F)c(-c3ccc(F)c4sc(N)c(C#N)c34)c(C(F)(F)F)cc12 (stereo partly drawn) [Compound 307] | 1 to 10 µM
12 | N#Cc1c(N)sc2c(F)ccc(-c3c(C(F)(F)F)cc4c(N5CC6C(=O)NC(=O)C6C5)nc(OC[C@@]56CCCN5C[C@H](F)C6)nc4c3F)c12 (stereo partly drawn) [Compound 308] | 1 to 10 µM
13 | CN(c1nc(OC[C@@]23CCCN2C[C@H](F)C3)nc2c(F)c(-c3ccc(F)c4sc(N)c(C#N)c34)c(C(F)(F)F)cc12)[C@H]1CC[C@@H](O)C1 [Compound 309] | 0.1 to 1 µM
14 | N#Cc1c(N)sc2c(F)ccc(-c3c(C(F)(F)F)cc4c(N5CCC[C@H](CO)C5)nc(OC[C@@]56CCCN5C[C@H](F)C6)nc4c3F)c12 [Compound 310] | 0.1 to 1 µM

Biological target: T3, Avi-KRAS G12V (1-169) GppNHp/RAF1 RBD-3xFLAG (52-151) (Homo sapiens, UniProt P01116, G12V)
T3 construct: Avi-KRAS G12V (1-169)
Assay: Raf1-KRAS G12V-GppNHP disruption HTRF assay (Biological Example 1)
Format: binding
Details: KRAS G12V-GppNHp/RAF1 RBD HTRF
Outline: as §1

T3 sequence (P01116 1-169 isoform P01116-2 G12V): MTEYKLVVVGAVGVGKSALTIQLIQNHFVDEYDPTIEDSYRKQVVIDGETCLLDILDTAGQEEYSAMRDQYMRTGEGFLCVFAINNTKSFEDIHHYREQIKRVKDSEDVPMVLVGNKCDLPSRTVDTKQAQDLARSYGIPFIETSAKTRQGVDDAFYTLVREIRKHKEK

Row | Compound | IC50
15 | CC(=O)N1CCC2[C@H]1CCCN2c1nc(OC[C@@]23CCCN2C[C@H](F)C3)nc2c(F)c(-c3ccc(F)c4sc(N)c(C#N)c34)c(C(F)(F)F)cc12 (stereo partly drawn) [Compound 304] | 1 to 10 µM
16 | N#Cc1c(N)sc2c(F)ccc(-c3c(C(F)(F)F)cc4c(N5CCCCCC5)nc(OC[C@@]56CCCN5C[C@H](F)C6)nc4c3F)c12 [Compound 305] | 0.1 to 1 µM
17 | N#Cc1c(N)sc2c(F)ccc(-c3c(C(F)(F)F)cc4c(N5CC6CC(O)C(C6)C5)nc(OC[C@@]56CCCN5C[C@H](F)C6)nc4c3F)c12 (stereo partly drawn) [Compound 306] | > 10 µM
18 | CC(=O)N1CCC2[C@H]1CCN2c1nc(OC[C@@]23CCCN2C[C@H](F)C3)nc2c(F)c(-c3ccc(F)c4sc(N)c(C#N)c34)c(C(F)(F)F)cc12 (stereo partly drawn) [Compound 307] | 1 to 10 µM
19 | N#Cc1c(N)sc2c(F)ccc(-c3c(C(F)(F)F)cc4c(N5CC6C(=O)NC(=O)C6C5)nc(OC[C@@]56CCCN5C[C@H](F)C6)nc4c3F)c12 (stereo partly drawn) [Compound 308] | 1 to 10 µM
20 | CN(c1nc(OC[C@@]23CCCN2C[C@H](F)C3)nc2c(F)c(-c3ccc(F)c4sc(N)c(C#N)c34)c(C(F)(F)F)cc12)[C@H]1CC[C@@H](O)C1 [Compound 309] | 0.1 to 1 µM
21 | N#Cc1c(N)sc2c(F)ccc(-c3c(C(F)(F)F)cc4c(N5CCC[C@H](CO)C5)nc(OC[C@@]56CCCN5C[C@H](F)C6)nc4c3F)c12 [Compound 310] | 1 to 10 µM

Biological target: T4, Avi-KRAS WT (1-169) GppNHp/RAF1 RBD-3xFLAG (52-151) (Homo sapiens, UniProt P01116)
T4 construct: Avi-KRAS WT (1-169)
Assay: Raf1-KRAS WT-GppNHP disruption HTRF assay (Biological Example 1)
Format: binding
Details: KRAS WT-GppNHp/RAF1 RBD HTRF
Outline: as §1

T4 sequence (P01116 1-169 isoform P01116-2): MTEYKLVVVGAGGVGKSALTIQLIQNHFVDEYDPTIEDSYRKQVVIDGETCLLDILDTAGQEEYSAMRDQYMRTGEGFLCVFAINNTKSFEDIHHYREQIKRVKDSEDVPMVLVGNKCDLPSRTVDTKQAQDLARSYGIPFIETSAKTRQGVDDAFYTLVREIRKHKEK

Row | Compound | IC50
22 | CC(=O)N1CCC2[C@H]1CCCN2c1nc(OC[C@@]23CCCN2C[C@H](F)C3)nc2c(F)c(-c3ccc(F)c4sc(N)c(C#N)c34)c(C(F)(F)F)cc12 (stereo partly drawn) [Compound 304] | 0.1 to 1 µM
23 | N#Cc1c(N)sc2c(F)ccc(-c3c(C(F)(F)F)cc4c(N5CCCCCC5)nc(OC[C@@]56CCCN5C[C@H](F)C6)nc4c3F)c12 [Compound 305] | 0.1 to 1 µM
24 | N#Cc1c(N)sc2c(F)ccc(-c3c(C(F)(F)F)cc4c(N5CC6CC(O)C(C6)C5)nc(OC[C@@]56CCCN5C[C@H](F)C6)nc4c3F)c12 (stereo partly drawn) [Compound 306] | 1 to 10 µM
25 | CC(=O)N1CCC2[C@H]1CCN2c1nc(OC[C@@]23CCCN2C[C@H](F)C3)nc2c(F)c(-c3ccc(F)c4sc(N)c(C#N)c34)c(C(F)(F)F)cc12 (stereo partly drawn) [Compound 307] | 1 to 10 µM
26 | N#Cc1c(N)sc2c(F)ccc(-c3c(C(F)(F)F)cc4c(N5CC6C(=O)NC(=O)C6C5)nc(OC[C@@]56CCCN5C[C@H](F)C6)nc4c3F)c12 (stereo partly drawn) [Compound 308] | 0.1 to 1 µM
27 | CN(c1nc(OC[C@@]23CCCN2C[C@H](F)C3)nc2c(F)c(-c3ccc(F)c4sc(N)c(C#N)c34)c(C(F)(F)F)cc12)[C@H]1CC[C@@H](O)C1 [Compound 309] | 0.1 to 1 µM
28 | N#Cc1c(N)sc2c(F)ccc(-c3c(C(F)(F)F)cc4c(N5CCC[C@H](CO)C5)nc(OC[C@@]56CCCN5C[C@H](F)C6)nc4c3F)c12 [Compound 310] | 0.1 to 1 µM

System: GP2d cells (KRAS G12D)
Assay: Cell-based pERK HTRF assay in GP2d cell (Biological Example 2)
Details: GP2d, GP2d (KRAS G12D) cells, pERK HTRF
Outline: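 HTRF read-out of pERK (excitation 320 nm, emission 615 nm) after lysates sat 4–24 h at room temperature with Eu cryptate and d2 antibodies.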

Row | Compound | IC50
29 | CC(=O)N1CCC2[C@H]1CCCN2c1nc(OC[C@@]23CCCN2C[C@H](F)C3)nc2c(F)c(-c3ccc(F)c4sc(N)c(C#N)c34)c(C(F)(F)F)cc12 (stereo partly drawn) [Compound 304] | < 0.1 µM
30 | N#Cc1c(N)sc2c(F)ccc(-c3c(C(F)(F)F)cc4c(N5CCCCCC5)nc(OC[C@@]56CCCN5C[C@H](F)C6)nc4c3F)c12 [Compound 305] | < 0.1 µM
31 | N#Cc1c(N)sc2c(F)ccc(-c3c(C(F)(F)F)cc4c(N5CC6CC(O)C(C6)C5)nc(OC[C@@]56CCCN5C[C@H](F)C6)nc4c3F)c12 (stereo partly drawn) [Compound 306] | 0.1 to 1 µM
32 | CC(=O)N1CCC2[C@H]1CCN2c1nc(OC[C@@]23CCCN2C[C@H](F)C3)nc2c(F)c(-c3ccc(F)c4sc(N)c(C#N)c34)c(C(F)(F)F)cc12 (stereo partly drawn) [Compound 307] | < 0.1 µM
33 | N#Cc1c(N)sc2c(F)ccc(-c3c(C(F)(F)F)cc4c(N5CC6C(=O)NC(=O)C6C5)nc(OC[C@@]56CCCN5C[C@H](F)C6)nc4c3F)c12 (stereo partly drawn) [Compound 308] | 0.1 to 1 µM
34 | CN(c1nc(OC[C@@]23CCCN2C[C@H](F)C3)nc2c(F)c(-c3ccc(F)c4sc(N)c(C#N)c34)c(C(F)(F)F)cc12)[C@H]1CC[C@@H](O)C1 [Compound 309] | < 0.1 µM
35 | N#Cc1c(N)sc2c(F)ccc(-c3c(C(F)(F)F)cc4c(N5CCC[C@H](CO)C5)nc(OC[C@@]56CCCN5C[C@H](F)C6)nc4c3F)c12 [Compound 310] | < 0.1 µM

System: SW620 cells (KRAS G12V)
Assay: Cell-based pERK HTRF assay in SW620 cell (Biological Example 4)
Details: Homo sapiens, SW-620, SW620 (KRAS G12V) cells, pERK HTRF
Outline: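 SW620 cells were treated for 4 h with compound in a 9-point half-log series from 1 μM top (0.25% DMSO), then lysed. Phospho-ERK was detected by HTRF with d2 and Eu cryptate antibodies after 4–24 h at room temperature, read at 615 nm emission.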

Row | Compound | IC50
36 | CC(=O)N1CCC2[C@H]1CCCN2c1nc(OC[C@@]23CCCN2C[C@H](F)C3)nc2c(F)c(-c3ccc(F)c4sc(N)c(C#N)c34)c(C(F)(F)F)cc12 (stereo partly drawn) [Compound 304] | 0.1 to 1 µM
37 | N#Cc1c(N)sc2c(F)ccc(-c3c(C(F)(F)F)cc4c(N5CCCCCC5)nc(OC[C@@]56CCCN5C[C@H](F)C6)nc4c3F)c12 [Compound 305] | < 0.1 µM
38 | N#Cc1c(N)sc2c(F)ccc(-c3c(C(F)(F)F)cc4c(N5CC6CC(O)C(C6)C5)nc(OC[C@@]56CCCN5C[C@H](F)C6)nc4c3F)c12 (stereo partly drawn) [Compound 306] | 0.1 to 1 µM
39 | CC(=O)N1CCC2[C@H]1CCN2c1nc(OC[C@@]23CCCN2C[C@H](F)C3)nc2c(F)c(-c3ccc(F)c4sc(N)c(C#N)c34)c(C(F)(F)F)cc12 (stereo partly drawn) [Compound 307] | < 0.1 µM
40 | N#Cc1c(N)sc2c(F)ccc(-c3c(C(F)(F)F)cc4c(N5CC6C(=O)NC(=O)C6C5)nc(OC[C@@]56CCCN5C[C@H](F)C6)nc4c3F)c12 (stereo partly drawn) [Compound 308] | > 1 µM
41 | CN(c1nc(OC[C@@]23CCCN2C[C@H](F)C3)nc2c(F)c(-c3ccc(F)c4sc(N)c(C#N)c34)c(C(F)(F)F)cc12)[C@H]1CC[C@@H](O)C1 [Compound 309] | < 0.1 µM
42 | N#Cc1c(N)sc2c(F)ccc(-c3c(C(F)(F)F)cc4c(N5CCC[C@H](CO)C5)nc(OC[C@@]56CCCN5C[C@H](F)C6)nc4c3F)c12 [Compound 310] | 0.1 to 1 µM
